Data as given in patent US9304136B2, “Means and methods for assessing increased peroxisomal proliferation” (BASF SE, priority 2008, dated 2016).

Experiments:
[1] = tested on: male rats; assay: Plasma metabolite profiling after 28-day oral dosing, male rats (markers for peroxisomal proliferators); assay type: in vivo, rat; conditions: once daily gavage; for 16-Methylheptadecanoic acid, change in plasma relative to control / 17-Methyloctadecanoic acid, change in plasma relative to control / Coenzyme Q10, change in plasma relative to control / Proline, change in plasma relative to control / Threonine, change in plasma relative to control / Tyrosine, change in plasma relative to control / trans-4-Hydroxyproline, change in plasma relative to control: marker direction down; for Eicosatrienoic acid (C20:3), change in plasma relative to control: marker direction up
Protocol: (§1) A group of each 5 male and female rats was dosed once daily with the indicated compounds (see tables below) at 10 and 100 mg/kg body weight per gavage over 28 days. Additional groups of each 5 male and female animals served as controls. Before starting the treatment period, animals, which were 62-64 days old when supplied, were acclimatized to the housing and environmental conditions for 7 days. All animals of the animal population were kept under the same constant temperature (20-24±3° C.) and the same constant humidity (30-70%). Each animal of the animal population was kept in a separate cage. The animals of the animal population are fed ad libitum. The food to be used was be essentially free of chemical or microbial contaminants. Drinking water was also offered ad libitum. Accordingly, the water was be free of chemical and microbial contaminants as laid down in the European Drinking Water Directive 98/83/EG. The illumination period was 12 hours light followed by 12 hours darkness (12 hours light, from 6:00 to 18:00, and 12 hours darkness, from 18:00 to 6:00).
(§2) In the morning of day 7, 14, and 28, blood was taken from the retroorbital venous plexus from fasted anaesthetized animals. From each animal, 1 ml of blood was collected with EDTA as anticoagulant. The samples were be centrifuged for generation of plasma. All plasma samples were covered with a N2 atmosphere and then stored at −80° C. until analysis.
(§3) For mass spectrometry-based metabolite profiling analyses plasma samples were extracted and a polar and a non-polar fraction was obtained. For GC-MS analysis, the non-polar fraction was […] with methanol under acidic conditions to yield the fatty acid methyl esters. Both fractions were further derivatised with O-methyl-hydroxyamine hydrochloride and pyridine to convert Oxo-groups to O-metyloximes and subsequently with a silyating agent […]. In LC-MS analysis, both fractions were reconstituted in appropriate solvent mixtures. HPLC was performed by gradient elution on reversed phase separation columns. For mass spectrometric detection metanomics proprietary technology was applied which allows target and high sensitivity MRM (Multiple Reaction Monitoring) profiling in parallel to a full screen analysis.
(§4) Following comprehensive analytical validation steps, the data for each analyte were normalized against data from pool samples. These samples were run in parallel through the whole process to account for process variability. The significance of treatment group values specific for sex, dose group and metabolite was determined by comparing means of the treated groups to the means of the respective untreated control groups using Student's t-test. Normalized treatment group values and their significance were fed into a database for further statistics and data mining processes.
(§5) The changes of the group of plasma metabolites being indicative for increased peroxisomal proliferation after treatment of the rats are shown in the following tables: […]

[2] = tested on: female rats; assay: Plasma metabolite profiling after 28-day oral dosing, female rats (markers for peroxisomal proliferators); assay type: in vivo, rat; conditions: once daily gavage; for 16-Methylheptadecanoic acid, change in plasma relative to control / 17-Methyloctadecanoic acid, change in plasma relative to control / Cytosine, change in plasma relative to control / Phosphatidylcholine (C18:0/C22:6), change in plasma relative to control: marker direction down; for Coenzyme Q9, change in plasma relative to control / Gamma-Linolenic acid (C18:cis[6,9,12]3), change in plasma relative to control / Glycerol, lipid fraction, change in plasma relative to control / Palmitic acid (C16:0), change in plasma relative to control / Pantothenic acid, change in plasma relative to control / Threonic acid, change in plasma relative to control: marker direction up
Protocol: as §1, §2, §3, §4, §5

CCOC(=O)C(C)(C)Oc1ccc(Cl)cc1 [Clofibrate]
16-Methylheptadecanoic acid, change in plasma relative to control ([1]; mh7 (day 7)): 0.24 | 17-Methyloctadecanoic acid, change in plasma relative to control ([1]; mh7 (day 7)): 0.35 | Coenzyme Q10, change in plasma relative to control ([1]; mh7 (day 7)): 0.45 | Proline, change in plasma relative to control ([1]; mh7 (day 7)): 0.78 | Threonine, change in plasma relative to control ([1]; mh7 (day 7)): 0.68 | Tyrosine, change in plasma relative to control ([1]; mh7 (day 7)): 0.87 | trans-4-Hydroxyproline, change in plasma relative to control ([1]; mh7 (day 7)): 0.77 | Eicosatrienoic acid (C20:3), change in plasma relative to control ([1]; mh7 (day 7)): 1.65 | 16-Methylheptadecanoic acid, change in plasma relative to control ([1]; mh14 (day 14)): 0.21 | 17-Methyloctadecanoic acid, change in plasma relative to control ([1]; mh14 (day 14)): 0.27 | Coenzyme Q10, change in plasma relative to control ([1]; mh14 (day 14)): 0.60 | Proline, change in plasma relative to control ([1]; mh14 (day 14)): 0.80 | Threonine, change in plasma relative to control ([1]; mh14 (day 14)): 1.02 | Tyrosine, change in plasma relative to control ([1]; mh14 (day 14)): 0.95 | trans-4-Hydroxyproline, change in plasma relative to control ([1]; mh14 (day 14)): 0.64 | Eicosatrienoic acid (C20:3), change in plasma relative to control ([1]; mh14 (day 14)): 1.72 | 16-Methylheptadecanoic acid, change in plasma relative to control ([1]; mh28 (day 28)): 0.28 | 17-Methyloctadecanoic acid, change in plasma relative to control ([1]; mh28 (day 28)): 0.37 | Coenzyme Q10, change in plasma relative to control ([1]; mh28 (day 28)): 0.47 | Proline, change in plasma relative to control ([1]; mh28 (day 28)): 0.87 | Threonine, change in plasma relative to control ([1]; mh28 (day 28)): 1.06 | Tyrosine, change in plasma relative to control ([1]; mh28 (day 28)): 1.02 | trans-4-Hydroxyproline, change in plasma relative to control ([1]; mh28 (day 28)): 0.57 | Eicosatrienoic acid (C20:3), change in plasma relative to control ([1]; mh28 (day 28)): 2.54 | 16-Methylheptadecanoic acid, change in plasma relative to control ([2]; fh7 (day 7)): 0.55 | 17-Methyloctadecanoic acid, change in plasma relative to control ([2]; fh7 (day 7)): 0.48 | Cytosine, change in plasma relative to control ([2]; fh7 (day 7)): 0.87 | Phosphatidylcholine (C18:0/C22:6), change in plasma relative to control ([2]; fh7 (day 7)): 0.88 | Coenzyme Q9, change in plasma relative to control ([2]; fh7 (day 7)): 1.86 | Gamma-Linolenic acid (C18:cis[6,9,12]3), change in plasma relative to control ([2]; fh7 (day 7)): 2.04 | Glycerol, lipid fraction, change in plasma relative to control ([2]; fh7 (day 7)): 1.39 | Palmitic acid (C16:0), change in plasma relative to control ([2]; fh7 (day 7)): 1.05 | Pantothenic acid, change in plasma relative to control ([2]; fh7 (day 7)): 1.07 | Threonic acid, change in plasma relative to control ([2]; fh7 (day 7)): 1.23 | 16-Methylheptadecanoic acid, change in plasma relative to control ([2]; fh14 (day 14)): 0.75 | 17-Methyloctadecanoic acid, change in plasma relative to control ([2]; fh14 (day 14)): 0.57 | Cytosine, change in plasma relative to control ([2]; fh14 (day 14)): 0.86 | Phosphatidylcholine (C18:0/C22:6), change in plasma relative to control ([2]; fh14 (day 14)): 0.71 | Coenzyme Q9, change in plasma relative to control ([2]; fh14 (day 14)): 1.64 | Gamma-Linolenic acid (C18:cis[6,9,12]3), change in plasma relative to control ([2]; fh14 (day 14)): 1.88 | Glycerol, lipid fraction, change in plasma relative to control ([2]; fh14 (day 14)): 1.64 | Palmitic acid (C16:0), change in plasma relative to control ([2]; fh14 (day 14)): 1.38 | Pantothenic acid, change in plasma relative to control ([2]; fh14 (day 14)): 1.75 | Threonic acid, change in plasma relative to control ([2]; fh14 (day 14)): 1.30 | 16-Methylheptadecanoic acid, change in plasma relative to control ([2]; fh28 (day 28)): 0.75 | 17-Methyloctadecanoic acid, change in plasma relative to control ([2]; fh28 (day 28)): 0.77 | Cytosine, change in plasma relative to control ([2]; fh28 (day 28)): 1.00 | Phosphatidylcholine (C18:0/C22:6), change in plasma relative to control ([2]; fh28 (day 28)): 0.53 | Coenzyme Q9, change in plasma relative to control ([2]; fh28 (day 28)): 2.55 | Gamma-Linolenic acid (C18:cis[6,9,12]3), change in plasma relative to control ([2]; fh28 (day 28)): 7.00 | Glycerol, lipid fraction, change in plasma relative to control ([2]; fh28 (day 28)): 4.99 | Palmitic acid (C16:0), change in plasma relative to control ([2]; fh28 (day 28)): 2.31 | Pantothenic acid, change in plasma relative to control ([2]; fh28 (day 28)): 1.22 | Threonic acid, change in plasma relative to control ([2]; fh28 (day 28)): 1.30

CCCCOC(=O)c1ccccc1C(=O)OCc1ccccc1 [Benzylbutyl Phthalate]
16-Methylheptadecanoic acid, change in plasma relative to control ([1]; mh7 (day 7)): 0.24 | 17-Methyloctadecanoic acid, change in plasma relative to control ([1]; mh7 (day 7)): 0.37 | Coenzyme Q10, change in plasma relative to control ([1]; mh7 (day 7)): 0.51 | Proline, change in plasma relative to control ([1]; mh7 (day 7)): 0.74 | Threonine, change in plasma relative to control ([1]; mh7 (day 7)): 0.55 | Tyrosine, change in plasma relative to control ([1]; mh7 (day 7)): 0.74 | trans-4-Hydroxyproline, change in plasma relative to control ([1]; mh7 (day 7)): 0.69 | Eicosatrienoic acid (C20:3), change in plasma relative to control ([1]; mh7 (day 7)): 2.56 | 16-Methylheptadecanoic acid, change in plasma relative to control ([1]; mh14 (day 14)): 0.31 | 17-Methyloctadecanoic acid, change in plasma relative to control ([1]; mh14 (day 14)): 0.28 | Coenzyme Q10, change in plasma relative to control ([1]; mh14 (day 14)): 0.34 | Proline, change in plasma relative to control ([1]; mh14 (day 14)): 0.85 | Threonine, change in plasma relative to control ([1]; mh14 (day 14)): 0.69 | Tyrosine, change in plasma relative to control ([1]; mh14 (day 14)): 0.83 | trans-4-Hydroxyproline, change in plasma relative to control ([1]; mh14 (day 14)): 0.65 | Eicosatrienoic acid (C20:3), change in plasma relative to control ([1]; mh14 (day 14)): 3.12 | 16-Methylheptadecanoic acid, change in plasma relative to control ([1]; mh28 (day 28)): 0.20 | 17-Methyloctadecanoic acid, change in plasma relative to control ([1]; mh28 (day 28)): 0.30 | Coenzyme Q10, change in plasma relative to control ([1]; mh28 (day 28)): 0.27 | Proline, change in plasma relative to control ([1]; mh28 (day 28)): 0.84 | Threonine, change in plasma relative to control ([1]; mh28 (day 28)): 0.81 | Tyrosine, change in plasma relative to control ([1]; mh28 (day 28)): 0.97 | trans-4-Hydroxyproline, change in plasma relative to control ([1]; mh28 (day 28)): 0.83 | Eicosatrienoic acid (C20:3), change in plasma relative to control ([1]; mh28 (day 28)): 4.12 | 16-Methylheptadecanoic acid, change in plasma relative to control ([2]; fh7 (day 7)): 0.55 | 17-Methyloctadecanoic acid, change in plasma relative to control ([2]; fh7 (day 7)): 0.78 | Cytosine, change in plasma relative to control ([2]; fh7 (day 7)): 0.77 | Phosphatidylcholine (C18:0/C22:6), change in plasma relative to control ([2]; fh7 (day 7)): 0.59 | Coenzyme Q9, change in plasma relative to control ([2]; fh7 (day 7)): 1.44 | Gamma-Linolenic acid (C18:cis[6,9,12]3), change in plasma relative to control ([2]; fh7 (day 7)): 1.98 | Glycerol, lipid fraction, change in plasma relative to control ([2]; fh7 (day 7)): 1.15 | Palmitic acid (C16:0), change in plasma relative to control ([2]; fh7 (day 7)): 1.48 | Pantothenic acid, change in plasma relative to control ([2]; fh7 (day 7)): 1.82 | Threonic acid, change in plasma relative to control ([2]; fh7 (day 7)): 1.20 | 16-Methylheptadecanoic acid, change in plasma relative to control ([2]; fh14 (day 14)): 0.66 | 17-Methyloctadecanoic acid, change in plasma relative to control ([2]; fh14 (day 14)): 0.64 | Cytosine, change in plasma relative to control ([2]; fh14 (day 14)): 0.63 | Phosphatidylcholine (C18:0/C22:6), change in plasma relative to control ([2]; fh14 (day 14)): 0.86 | Coenzyme Q9, change in plasma relative to control ([2]; fh14 (day 14)): 1.50 | Gamma-Linolenic acid (C18:cis[6,9,12]3), change in plasma relative to control ([2]; fh14 (day 14)): 1.64 | Glycerol, lipid fraction, change in plasma relative to control ([2]; fh14 (day 14)): 1.48 | Palmitic acid (C16:0), change in plasma relative to control ([2]; fh14 (day 14)): 1.79 | Pantothenic acid, change in plasma relative to control ([2]; fh14 (day 14)): 2.06 | Threonic acid, change in plasma relative to control ([2]; fh14 (day 14)): 1.53 | 16-Methylheptadecanoic acid, change in plasma relative to control ([2]; fh28 (day 28)): 0.85 | 17-Methyloctadecanoic acid, change in plasma relative to control ([2]; fh28 (day 28)): 0.69 | Cytosine, change in plasma relative to control ([2]; fh28 (day 28)): 0.79 | Phosphatidylcholine (C18:0/C22:6), change in plasma relative to control ([2]; fh28 (day 28)): 0.81 | Coenzyme Q9, change in plasma relative to control ([2]; fh28 (day 28)): 1.78 | Gamma-Linolenic acid (C18:cis[6,9,12]3), change in plasma relative to control ([2]; fh28 (day 28)): 2.08 | Glycerol, lipid fraction, change in plasma relative to control ([2]; fh28 (day 28)): 2.43 | Palmitic acid (C16:0), change in plasma relative to control ([2]; fh28 (day 28)): 1.94 | Pantothenic acid, change in plasma relative to control ([2]; fh28 (day 28)): 2.42 | Threonic acid, change in plasma relative to control ([2]; fh28 (day 28)): 1.74
